{
  "source": "paper PMC2211560",
  "about": "(PLoS Medicine, 2008)",
  "key": {"[1]": {"tested_on": "Akt", "assay": "PRAS40 (threonine 246) phosphorylation in tumor tissue by IHC", "type": "in vivo, human", "conditions": "for pPRAS 40 Induction: statistically significant increase S2 vs S1 (p < 0.05, Wilcoxon), individual patients", "description": "The following antibodies were used for IHC: anti-PTEN (6H2.1, #ABM-2052, Cascade BioScience; 1:400 dilution), anti-Ki-67 (MIB-1, M7240, DakoCytomation; 1:100 Dilution), anti-phospho Ser235/236 S6 (91B2, #4857, Cell Signaling; 1:50 dilution), anti phospho Ser240/244 S6 (#2215, Cell Signaling; 1:200 dilution), anti-phospho-PRAS 40 (#44–1100G, Biosource; 1:200 dilution), anti-phospho Ser473 Akt (736E11, #3787, Cell Signaling; 1:50 dilution), anti-phospho Thr389 p70 S6 Kinase (#9205, Cell Signaling; 1:100 Dilution), and anti phospho Ser1108 eIF4G at 1:400 (#2441, Cell Signaling; 1:400 dilution). Antigen retrieval was performed using 0.01 M citrate buffer, pH 6.0 for 30 min in an oven and peroxidase activity was quenched with 3% hydrogen peroxide in water. Primary antibodies were diluted in PBS /2% bovine serum albumin/2% normal horse serum (for anti-PTEN) or TBS/0.1% Tween/5% normal goat serum (for phosphosite-specific antibodies) and applied overnight at 4 °C. Biotinylated secondary antibodies (Vector) were applied at 1:200 dilution for 45 min, and the avidin-biotin complex (Elite ABC, Vector) for 30 min. Vector NovaRed was used as the enzyme substrate to visualize specific antibody localization. […] All slides were counterstained with Harris hematoxylin.\nWe assessed Akt activity in S1 and S2 samples in the rapamycin-treated patients using phosphosite-specific antibodies against the serine/threonine kinase Akt (serine 473) and its downstream substrate PRAS 40 (threonine 246), which serves as a biomarker for Akt activity (Figure 4A). PRAS40 has also been recently shown to inhibit mTOR, and this inhibition is relieved by Akt phosphorylation.\n(§1) Scoring of immunohistochemical stains. […] Digital scores for PTEN, phospho-S6, and phospho-PRAS40 are based on absolute staining intensity of tumor cells as quantified following false-color conversion. PTEN, phospho-S6, phospho-PRAS40, and Ki-67 were scored in representative and matching areas of consecutive tissue sections (Suppl. Fig. 1), excluding areas with large vessels and/or prominent reactive changes (e.g., reactive astrogliosis or lymphocytic infiltration). […] Quantitative analysis was done using HSI color algorithm based on hue, saturation and intensity. Saturations of the separated cell in the images were quantified in the red-brown hue range to exclude the negative staining area with hematoxylin nuclear staining. To compare the staining intensity of all slides, mean saturation of total cells on each image was quantified and calculated. For Ki-67 staining scoring, separated cells were quantified with red brown hue range (positive staining) and total hue range (all cells) after cell border separation and Ki-67 labeling index was calculated based on these numbers. […]"}, "[2]": {"tested_on": "PTEN-deficient glioblastoma", "assay": "Ki-67 labeling index of tumor tissue (S2 versus S1)", "type": "in vivo, human", "conditions": "for Ki-67 Decrease: about 1 wk pre-operative, S2 vs S1, individual patients", "description": "To quantify mTOR activity in matched S1 and S2 samples, we measured phosphorylation of S6 ribosomal protein by immunohistochemistry using two distinct phosphosite antibodies directed against Ser235/236 or Ser240/244. […] Immunohistochemistry (IHC) scoring is described in detail in Text S1.\nThe following antibodies were used for IHC: anti-PTEN (6H2.1, #ABM-2052, Cascade BioScience; 1:400 dilution), anti-Ki-67 (MIB-1, M7240, DakoCytomation; 1:100 Dilution), anti-phospho Ser235/236 S6 (91B2, #4857, Cell Signaling; 1:50 dilution), anti phospho Ser240/244 S6 (#2215, Cell Signaling; 1:200 dilution), anti-phospho-PRAS 40 (#44–1100G, Biosource; 1:200 dilution), anti-phospho Ser473 Akt (736E11, #3787, Cell Signaling; 1:50 dilution), anti-phospho Thr389 p70 S6 Kinase (#9205, Cell Signaling; 1:100 Dilution), and anti phospho Ser1108 eIF4G at 1:400 (#2441, Cell Signaling; 1:400 dilution). Antigen retrieval was performed using 0.01 M citrate buffer, pH 6.0 for 30 min in an oven and peroxidase activity was quenched with 3% hydrogen peroxide in water. Primary antibodies were diluted in PBS /2% bovine serum albumin/2% normal horse serum (for anti-PTEN) or TBS/0.1% Tween/5% normal goat serum (for phosphosite-specific antibodies) and applied overnight at 4 °C. […]\nas §1, with “numbers. For p-PRAS40 scoring, mean saturation of the positive staining tumor cells was quantified in the red-brown hue range, followed by multiplying the positive cell ratio in the same image to evaluate both staining intensity and staining distribution. pS473 Akt was quantified on a scale of 0-2; 0^+ = no staining, 1^+ = mild intensity cytoplasmic staining, and 2^+ = strong cytoplasmic staining.” for “numbers.”"}, "[3]": {"tested_on": "recurrent PTEN-deficient glioblastoma", "assay": "Clinical outcome: time-to-progression and radiographic response", "type": "in vivo, human", "conditions": "for TTP: interval between start of rapamycin and postoperative treatment failure, individual patients", "description": "Figure 1 Clinical Trial Design Enrollment in the Phase I clinical trial was restricted to patients whose initial tumor resection (“surgery 1”) specimen was PTEN-deficient by immunohistochemistry. Patients were enrolled after failing standard therapy with radiation and chemotherapy (i.e., “tumor recurrence”).\nPatients were allowed two dose reductions."}, "[4]": {"tested_on": "short-term cultures derived from tumors", "assay": "Ex vivo rapamycin response of short-term tumor cultures (S6 immunoblot)", "type": "cell-based, human", "conditions": "0.3 and 3.0 nM, 8 h; rapamycin-sensitive (patients 1 and 3) and rapamycin-resistant (patients 2 and 12) samples", "excerpt": "The lower and upper end of the box corresponds to the 25th and 75th percentile, respectively. The whiskers extend to the 95% range. The Wilcoxon nonparametric group comparison test was used to calculate p-values for the differences between different patient groups. […] The horizontal line inside the box indicates the median value. The lower and upper border of the box corresponds to the 25th and 75th percentile, respectively. The whiskers extend to the 95% range."}, "[5]": {"conditions": "in vivo", "description": "Adverse events were evaluated according to the National Cancer Institute Common Toxicity Criteria, version 2 (http://ctep.info.nih.gov/reporting/index.html).\nThe first three patients were enrolled at the initial dose level of 2 mg per day. After a four week evaluation period for dose limiting toxicity, a minimum of 3 more patients could be enrolled at the next dose level. […] Presurgical dosing included the loading dose followed by the daily maintenance dose until surgery. After the patient recovered from the effects of surgery, identical loading and maintenance doses (e.g., 6 mg and 2 mg, respectively) were administered. […] Assessment of drug safety was done following a routine schedule and supplemented by additional evaluation whenever a patient reported a new symptom. […] Toxicities were graded according to the National Cancer Institute Common Toxicity Criteria version 2.0. Treatments were held until recovery to ≤ grade 1 toxicity for ANC < 1000/µl, platelets < 80,000/ µl, grade 3 or grade 4 non-hematologic toxicities, and grade 4 hypercholesterolemia or hypertryglyceridemia. […] A 50 % dose reduction was made for ANC < 750/µl, platelets < 50,000/µl, or grade 4 non-hematological AE. Patients were allowed two dose reductions."}, "[6]": {"tested_on": "PTEN-null cell lines", "parameters": "method as in PMID 11504908, PMID 11566616", "conditions": "PTEN-null cell lines in vitro; cited from earlier work"}, "[7]": {"tested_on": "cytochrome P450 isoenzyme 3A4", "conditions": "cited from earlier work"}},
  "note": "“And” between values parts separate entries of the source, which are not always exact repeats. Identical values can stand only once. Like-named read-outs stand apart in the source and are kept apart here.",
  "data": [
    {"molecule": "CO[C@H]1C[C@@H]2CC[C@@H](C)[C@@](O)(O2)C(=O)C(=O)N2CCCC[C@H]2C(=O)O[C@H]([C@H](C)C[C@@H]2CC[C@@H](O)[C@H](OC)C2)CC(=O)[C@H](C)/C=C(\\C)[C@@H](O)[C@@H](OC)C(=O)[C@H](C)C[C@H](C)/C=C/C=C/C=C/1C", "note": "[Rapamycin]", "values": [
      {"measurement": "pPRAS 40 Induction", "setting": "[1]; 2 mg oral daily", "value": "Yes"},
      {"measurement": "pPRAS 40 Induction", "setting": "[1]; 5 mg oral daily", "value": "No and Yes"},
      {"measurement": "pPRAS 40 Induction", "setting": "[1]; 10 mg oral daily", "value": "Yes and No"},
      {"measurement": "patients with statistically significant increase in PRAS40 phosphorylation in S2 sample", "setting": "[1]; Seven of 14 patients, p < 0.05, Wilcoxon test", "value": 50, "unit": "%"},
      {"measurement": "Ki-67 Decrease", "setting": "[2]; 2 mg oral daily", "value": "Yes and No"},
      {"measurement": "Ki-67 Decrease", "setting": "[2]; 5 mg oral daily", "value": "No and Yes"},
      {"measurement": "Ki-67 Decrease", "setting": "[2]; 10 mg oral daily", "value": "Yes and No"},
      {"measurement": "patients with nearly complete inhibition (dramatic reduction) of tumor cell proliferation", "setting": "[2]; Ki-67 staining after about 1 wk of rapamycin", "value": "seven of 14 and 7/14"},
      {"measurement": "TTP", "setting": "[3]; 2 mg oral daily", "value": "62 days and 40 days and 70 days"},
      {"measurement": "TTP", "setting": "[3]; 5 mg oral daily", "value": "194 days and 69 days and 144 days and 153 days and 42 days"},
      {"measurement": "TTP", "setting": "[3]; 10 mg oral daily", "value": "39 days and 538 days and 98 days and 146 days and 99 days and 55 days"},
      {"measurement": "tumor regression by magnetic resonance imaging", "setting": "[3]; Patient 8, extended neoadjuvant course (25 d), 5 mg, prior to surgery", "value": "> 50", "unit": "%"},
      {"measurement": "duration of radiographically stable disease postoperatively", "setting": "[3]; Patient 11", "value": "> 16", "unit": "mo"},
      {"measurement": "time from starting rapamycin to death without evidence of tumor recurrence", "setting": "[3]; Patient 11, 10 mg", "value": 538, "unit": "days"},
      {"measurement": "Radiographic Response to Rapamycin", "setting": "[3]; single-agent rapamycin, study patients", "value": "2/15"},
      {"measurement": "S6 phosphorylation ex vivo", "setting": "[4]", "value": "inhibited equally"},
      {"measurement": "grade 3 or 4 toxicities", "setting": "[5]; human", "value": "No grade 3 or 4 toxicities"},
      {"measurement": "patients with grade 3 adverse events (hypokalemia, hypercholesterolemia, and cytopenias)", "setting": "[5]; human", "value": "Five of 15"},
      {"measurement": "patients with grade 3 adverse events (hypokalemia, hypercholesterolemia, and cytopenias)", "setting": "[5]", "value": "five"},
      {"measurement": "perioperative bleeding complications", "setting": "[5]", "value": "no perioperative bleeding complications"},
      {"measurement": "Rapamycin concentrations known to confer antiproliferative activity", "setting": "[6]", "value": "~1", "unit": "nM"},
      {"measurement": "cytochrome P450 substrate", "setting": "[7]", "value": "substrate for the cytochrome P450 isoenzyme 3A4"}
    ]}
  ]
}
